From patent US11547681B2, “N-acylethanolamide derivatives and uses thereof” (ELIEM THERAPEUTICS, INC., priority 2016, dated 2023)
Blank lines part the entries; values can stand above or below the molecule they belong to.

How the values were obtained:
[1] = in vitro; conditions: both, human; for Concentration (μM) of analyte PEA, 0 min / Concentration (μM) of analyte PEA, 10 min / Concentration (μM) of analyte PEA, 20 min / Concentration (μM) of analyte PEA, 30 min / Concentration (μM) of analyte PEA, 60 min / % Remaining of Initial (n = 1), 0 min / % Remaining of Initial (n = 1), 10 min / % Remaining of Initial (n = 1), 20 min / % Remaining of Initial (n = 1), 30 min / % Remaining of Initial (n = 1), 60 min / Measured concentration of PEA (analyte) / % Remaining of Initial: 1 μM
Method in brief: (§1)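 Test article (1 μM final) pre-equilibrated with intestinal S9 at 37 °C, then reaction started with cofactor cocktail; sampled at 0, 10, 20, 30 and 60 min and quenched in acidified acetonitrile. Prodrug and released PEA quantified by LC-MS/MS; half-life from single-phase exponential fit of percent remaining versus time 0.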

[2] = in vitro; conditions: male, Sprague-Dawley, rat; for Concentration (μM) of analyte PEA, 0 min / Concentration (μM) of analyte PEA, 10 min / Concentration (μM) of analyte PEA, 20 min / Concentration (μM) of analyte PEA, 30 min / Concentration (μM) of analyte PEA, 60 min / % Remaining of Initial (n = 1), 0 min / % Remaining of Initial (n = 1), 10 min / % Remaining of Initial (n = 1), 20 min / % Remaining of Initial (n = 1), 30 min / % Remaining of Initial (n = 1), 60 min / Measured concentration of PEA (analyte) / % Remaining of Initial: 1 μM
Method in brief: as §1

[3] = in vitro; conditions: male, Beagle, dog; for Concentration (μM) of analyte PEA, 0 min / Concentration (μM) of analyte PEA, 10 min / Concentration (μM) of analyte PEA, 20 min / Concentration (μM) of analyte PEA, 30 min / Concentration (μM) of analyte PEA, 60 min / % Remaining of Initial (n = 1), 0 min / % Remaining of Initial (n = 1), 10 min / % Remaining of Initial (n = 1), 20 min / % Remaining of Initial (n = 1), 30 min / % Remaining of Initial (n = 1), 60 min / Measured concentration of PEA (analyte) / % Remaining of Initial: 1 μM
Method in brief: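 Half-lives are based on fitting compound loss over 0, 10, 20, 30 and 60 min to a single exponential, with amounts expressed against the zero-time sample. Reactions hold 1 μM substrate in S9 at 37 °C, start on cofactor addition, and are stopped with cold acetonitrile containing formic acid.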

Concentration (μM) of analyte PEA, 0 min ([1]; 0 min): 0 µM
Concentration (μM) of analyte PEA, 10 min ([1]; 10 min): 0.0027 µM
Concentration (μM) of analyte PEA, 20 min ([1]; 20 min): 0.025 µM
Concentration (μM) of analyte PEA, 30 min ([1]; 30 min): 0.034 µM
Concentration (μM) of analyte PEA, 60 min ([1]; 60 min): 0.048 µM
% Remaining of Initial (n = 1), 0 min ([1]; s9, 0 h): 100%
% Remaining of Initial (n = 1), 10 min ([1]; s9, 10 min): 76%
% Remaining of Initial (n = 1), 20 min ([1]; s9, 20 min): 86%
% Remaining of Initial (n = 1), 30 min ([1]; s9, 0.5 h): 83%
% Remaining of Initial (n = 1), 60 min ([1]; s9, 1 h): 60%
microsomal CLint at 1 μM ([1]; s9, CLint (mL/min/mg protein)): < 11.6 µL/min/mg
half-life at 1 μM ([1]; s9, Half-life (min)): > 60 min
Concentration (μM) of analyte PEA, 0 min ([2]; 0 min): 0 µM
Concentration (μM) of analyte PEA, 10 min ([2]; 10 min): 0.024 µM
Concentration (μM) of analyte PEA, 20 min ([2]; 20 min): 0.037 µM
Concentration (μM) of analyte PEA, 30 min ([2]; 30 min): 0.047 µM
Concentration (μM) of analyte PEA, 60 min ([2]; 60 min): 0.073 µM
% Remaining of Initial (n = 1), 0 min ([2]; s9, 0 h): 100%
% Remaining of Initial (n = 1), 10 min ([2]; s9, 10 min): 53%
% Remaining of Initial (n = 1), 20 min ([2]; s9, 20 min): 46%
% Remaining of Initial (n = 1), 30 min ([2]; s9, 0.5 h): 42%
% Remaining of Initial (n = 1), 60 min ([2]; s9, 1 h): 31%
microsomal CLint at 1 μM ([2]; s9, CLint (mL/min/mg protein)): 26.8 µL/min/mg
half-life at 1 μM ([2]; s9, Half-life (min)): 26 min
Concentration (μM) of analyte PEA, 0 min ([3]; 0 min): 0.015 µM
Concentration (μM) of analyte PEA, 10 min ([3]; 10 min): 0.23 µM
Concentration (μM) of analyte PEA, 20 min ([3]; 20 min): 0.28 µM
Concentration (μM) of analyte PEA, 30 min ([3]; 30 min): 0.29 µM
Concentration (μM) of analyte PEA, 60 min ([3]; 60 min): 0.50 µM
% Remaining of Initial (n = 1), 0 min ([3]; s9, 0 h): 100%
% Remaining of Initial (n = 1), 10 min ([3]; s9, 10 min): 46%
% Remaining of Initial (n = 1), 20 min ([3]; s9, 20 min): 46%
% Remaining of Initial (n = 1), 30 min ([3]; s9, 0.5 h): 34%
% Remaining of Initial (n = 1), 60 min ([3]; s9, 1 h): 18%
microsomal CLint at 1 μM ([3]; s9, CLint (mL/min/mg protein)): 36.8 µL/min/mg
half-life at 1 μM ([3]; s9, Half-life (min)): 19 min
SMILES: CCCCCCCCCCCCCCCC(=O)NCCOC(=O)CCC(=O)OCC(COC(=O)CCCCCCC)OC(=O)CCCCCCC (centres unmarked) [Compound I-3, PEA-Succinate-Glycerol-Di-Caprylic]

Measured concentration of PEA (analyte) ([1]; 0 min): 0.021 µM
Measured concentration of PEA (analyte) ([1]; 10 min): 0.32 µM
Measured concentration of PEA (analyte) ([1]; 20 min): 0.39 µM
Measured concentration of PEA (analyte) ([1]; 30 min): 0.38 µM
Measured concentration of PEA (analyte) ([1]; 60 min): 0.38 µM
% Remaining of Initial ([1]; s9, 0 h): 100%
% Remaining of Initial ([1]; s9, 10 min): 31%
% Remaining of Initial ([1]; s9, 20 min): 7.0%
% Remaining of Initial ([1]; s9, 0.5 h): 1.8%
% Remaining of Initial ([1]; s9, 1 h): <1.0%
microsomal CLint at 1 μM ([1]; s9, CLint): > 69.3 µL/min/mg
half-life at 1 μM ([1]; s9, Half-life): < 10 min
Measured concentration of PEA (analyte) ([2]; 0 min): 0.022 µM
Measured concentration of PEA (analyte) ([2]; 10 min): 0.22 µM
Measured concentration of PEA (analyte) ([2]; 20 min): 0.34 µM
Measured concentration of PEA (analyte) ([2]; 30 min): 0.42 µM
Measured concentration of PEA (analyte) ([2]; 60 min): 0.45 µM
% Remaining of Initial ([2]; s9, 0 h): 100%
% Remaining of Initial ([2]; s9, 10 min): 58%
% Remaining of Initial ([2]; s9, 20 min): 37%
% Remaining of Initial ([2]; s9, 0.5 h): 22%
% Remaining of Initial ([2]; s9, 1 h): 6.2%
microsomal CLint at 1 μM ([2]; s9, CLint): 50.3 µL/min/mg
half-life at 1 μM ([2]; s9, Half-life): 14 min
Measured concentration of PEA (analyte) ([3]; 0 min): 0.33 µM
Measured concentration of PEA (analyte) ([3]; 10 min): 0.71 µM
Measured concentration of PEA (analyte) ([3]; 20 min): 0.81 µM
Measured concentration of PEA (analyte) ([3]; 30 min): 0.67 µM
Measured concentration of PEA (analyte) ([3]; 60 min): 0.81 µM
% Remaining of Initial ([3]; s9, 0 h): 100%
% Remaining of Initial ([3]; s9, 10 min): <1.0%
% Remaining of Initial ([3]; s9, 20 min): <1.0%
% Remaining of Initial ([3]; s9, 0.5 h): <1.0%
% Remaining of Initial ([3]; s9, 1 h): <1.0%
microsomal CLint at 1 μM ([3]; s9, CLint): > 69.3 µL/min/mg
half-life at 1 μM ([3]; s9, Half-life): < 10 min
SMILES: CCCCCCCCCCCCCCCC(=O)NCCOC(=O)CCC(=O)OC(CO)CO [Compound I-8]

Concentration (μM) of analyte PEA, 0 min ([1]; 0 min): 0.011 µM
Concentration (μM) of analyte PEA, 10 min ([1]; 10 min): 0.057 µM
Concentration (μM) of analyte PEA, 20 min ([1]; 20 min): 0.075 µM
Concentration (μM) of analyte PEA, 30 min ([1]; 30 min): 0.067 µM
Concentration (μM) of analyte PEA, 60 min ([1]; 60 min): 0.11 µM
% Remaining of Initial (n = 1), 0 min ([1]; s9, 0 h): 100%
% Remaining of Initial (n = 1), 10 min ([1]; s9, 10 min): 73%
% Remaining of Initial (n = 1), 20 min ([1]; s9, 20 min): 41%
% Remaining of Initial (n = 1), 30 min ([1]; s9, 0.5 h): 28%
% Remaining of Initial (n = 1), 60 min ([1]; s9, 1 h): 9.6%
Concentration (μM) of analyte PEA, 0 min ([2]; 0 min): 0.69 µM
Concentration (μM) of analyte PEA, 10 min ([2]; 10 min): 0.63 µM
Concentration (μM) of analyte PEA, 20 min ([2]; 20 min): 0.60 µM
Concentration (μM) of analyte PEA, 30 min ([2]; 30 min): 0.52 µM
Concentration (μM) of analyte PEA, 60 min ([2]; 60 min): 0.52 µM
% Remaining of Initial (n = 1), 0 min ([2]; s9, 0 h): 100%
% Remaining of Initial (n = 1), 10 min ([2]; s9, 10 min): 35%
% Remaining of Initial (n = 1), 20 min ([2]; s9, 20 min): <1.0%
% Remaining of Initial (n = 1), 30 min ([2]; s9, 0.5 h): <1.0%
% Remaining of Initial (n = 1), 60 min ([2]; s9, 1 h): <1.0%
microsomal CLint at 1 μM ([2]; s9, CLint (mL/min/mg protein)): 123 µL/min/mg
half-life at 1 μM ([2]; s9, Half-life (min)): 5.6 min
Concentration (μM) of analyte PEA, 0 min ([3]; 0 min): 0.11 µM
Concentration (μM) of analyte PEA, 10 min ([3]; 10 min): 0.40 µM
Concentration (μM) of analyte PEA, 20 min ([3]; 20 min): 0.50 µM
Concentration (μM) of analyte PEA, 30 min ([3]; 30 min): 0.53 µM
Concentration (μM) of analyte PEA, 60 min ([3]; 60 min): 0.54 µM
% Remaining of Initial (n = 1), 0 min ([3]; s9, 0 h): 100%
% Remaining of Initial (n = 1), 10 min ([3]; s9, 10 min): 36%
% Remaining of Initial (n = 1), 20 min ([3]; s9, 20 min): 12%
% Remaining of Initial (n = 1), 30 min ([3]; s9, 0.5 h): 4.2%
% Remaining of Initial (n = 1), 60 min ([3]; s9, 1 h): <1.0%
SMILES: CCCCCCCCCCCCCCCC(=O)NCCOC(=O)CCC [Compound I-2]
